Experimental data from US4742155A, “Plipastatin and method for preparation thereof” (Zaidan Hojin Biseibutsu Kagaku Kenkyu Kai, priority 1984, dated 1988).
Entries after “also recorded” stand apart in the source; their conditions may differ. Bridge positions count the residues as written; N and C are the ends. Square brackets hold non-standard residues; d marks the D form. Peptide text beside a SMILES is read from it. * marks the point of attachment. Hexadecanoyl(3R-OH) = CCCCCCCCCCCCC[C@@H](O)CC(=O)*; d(aThr) = C[C@@H](O)[C@@H](N)C(=O)O; dOrn = NCCC[C@@H](N)C(=O)O

Assays:
[1] = target: phospholipase D (derived from cabbage); assay: Inhibition of phospholipase D (antiphospholipase D activity, 14C-DPC); assay type: biochemical; details: Table 2
Text: The monitoring of the production of Plipastatin through the cultivation and purification steps is accomplished by measuring the antiphospholipase D activity in accordance with the following method.
Two layers are separated by centrifugation.

Solubility = assay type: physicochemical; details: potassium salts (Table 1)
Protocol: (All measurements were carried out using potassium salts of the compounds unless otherwise specified.)

phospholipase C = target: phospholipase C
Protocol: (§1) The measurement of the antiphospholipase D activity is carried out by the method of Okuyama et al. described in A. Okuyama, T. Nishikiori, T. Aoyagi and H. Umezawa, Biochemistry international, 4, 417, 1982. Dipalmitoylphosphatidyl choline (DPC) (200 mM) and cholin-methyl-^14 C-DPC (4×10^4 dpm) are suspended ultrasonically in 390 μl of 50 mM tris-hydrochloric acid buffer (pH 5.7) containing 1 mM calcium chloride. To the resulting suspension is added 10 μl of a solution containing the sample to be tested. To the resulting mixture is added 100 μl of a solution of commercially available phospholipase D (derived from cabbage) and reacted at 37° C. for 20 minutes. The reaction is quenched by addition of 1.5 ml of a mixture of chloroform, methanol and conc. hydrochloric acid (2:1:0.02 v/v). To this mixture is then added 1 ml of 50% methanol containing […] potassium chloride and the mixture is stirred. Two layers are separated by centrifugation. The radioactivity (a) of choline liberated from the upper layer by the enzyme is measured. Also, the radioactivity (b) of the buffer free from the sample is measured as a blank test. The percentage inhibition of phospholipase activity is calculated according to the following formula: [(b-a)/b]×100.
(§2) IC50 values correspond to the concentration of the samples giving a 50% inhibition.
(§3) The measurement of the inhibition of phospholipase was accomplished by the method of Okuyama et al. set forth above.

phospholipase A2 = target: phospholipase A2
Protocol: as §1, §2, §3

[2] = system: Con A-stimulated T-lymphocytes; assay: Reaction of T-lymphocyte blastogenesis, [3H]-thymidine uptake; assay type: cell-based, BALB/c mice; details: 100 μg/ml (given for Plipastatin A1; not given for B1); 5 μg/ml Con A, 72 hours
Protocol: (§4) This experiment illustrates the suppressive effects of Plipastatin on the reaction of lymphocyte blastogenesis.
(§5) The reaction of lymphocyte blastogenesis was evaluated in terms of the incorporation of [^3 H]-thymidine in the DNA synthesis by both T-cells and B-cells stimulated with concanavalin A (hereunder referred to as Con A) and lipopolysaccharide of E. coli 055:B5. (Reference "Meneki Jikken Sosaho", or "Immunological Experiments Manual", pp. 2267-2276, The Japanese Society for Immunology).
(§6) In the reaction of T-lymphocyte blastogenesis, the T-cells were obtained by passing spleen cells of BALB/c mice (19 weeks old) through a nylon column to remove adsorptive cells and by then cultivating the resulting spleen cells in a plastic Petri dish for one hour to eliminate the remaining adsorptive cells. The cultivation of the T-cells was conducted in wells of a Falcon microtest plate using RPMI 1640 medium containing 20% fetal bovine serum, […] of Hepes, 100 μg/ml of streptomycin and 100 U/ml of penicillin G. The T-lymphocytes (1×10^5), 5 μg/ml of Con A and PLIPASTATIN A1 or B1 were added in that order to the wells and said medium was then added to the wells to make a total of 0.2 ml. The resulting mixture was incubated for 72 hours. The mixture was pulse-labeled with [^3 H]-thymidine at 8 hours before terminating the cultivation. […]

[3] = system: LPS-stimulated B-lymphocytes; assay: Reaction of B-lymphocyte blastogenesis, [3H]-thymidine uptake; assay type: cell-based, BALB/c mice; details: 100 μg/ml (given for Plipastatin A1; not given for B1); 100 μg/ml LPS, 72 hours
Protocol: as §4, §5, §6

[4] = system: PCA (Passive Cutaneous Anaphylaxis) reactions in rats of the S-D strain; assay: PCA (Passive Cutaneous Anaphylaxis) reaction, Evans blue patch; assay type: in vivo; details: for Development of blue patch +, number of animals in a group of five / Development of blue patch -, number of animals in a group of five / Development of blue patch ±, number of animals in a group of five: 150 μl intradermal 5 min before challenge
Protocol: The experiment described below was accomplished in accordance with conventional methods. (Reference: J. Immunology, 106, 1002-1011, 1971). Rats were sensitized with egg albumin antigen to obtain an anti-serum. The rats of the S-D strain (male, 8 wk of age) were passively sensitized by intradermal injection of 50 μl of the thus obtained anti-egg albumin serum on their backs. Forty-eight hours later, each rat was challenged by the intravenous injection of physiological saline containing egg albumin (2.5 mg) plus Evans blue (2.5 mg). Sixty minutes after the injection, any development of blue dye patch due to the extravasation of Evans blue at the sensitized site was checked. Five minutes before the challenge, the test compound (150 μl) was intradermally injected at the sensitized site. DSCG (disodium cromoglycate) was used as a control.

[5] = system: delayed-type hypersensitivity (DTH) in CDF1 mice; assay: Cell-mediated immunity: delayed-type hypersensitivity (DTH) to SRBC, footpad swelling; assay type: in vivo; details: for Thickness of footpad: 24 h after secondary SRBC challenge, CDF1 mice; for Percentage with respect to the control: footpad swelling, control = 100%
Text: This experiment illustrates the effects on the cell-mediated immunity in normal mice.
The activities of Plipastatin A1 and B1 on cell-mediated immunity were studied in terms of delayed-type hypersensitivity (DTH) caused by inoculating mice with antigenic sheep red blood cells (SRBC) in one footpad (Reference: J. Exp. Med., 139, 1529-1539, 1974).
CDF1 mice (female, 8 week of age) were inoculated intravenously with a suspension of 5×10^5 SRBC in physiological saline. At the same time, a single dose of an aqueous solution of 5 mg/Kg or 0.5 mg/Kg of Plipastatin A1 or B1 was administered intraperitoneally to the mice. Four days after the injection, the mice were subjected to the secondary challenge by subcutaneous injection of the other footpad with a suspension of 10^8 SRBC in physiological saline. Twenty-four hours later, the degree of footpad swelling (increasing in the thickness of the footpad) was measured with a caliper. The cell-mediated immunity suppressive effects of the test compounds were determined by comparing the degree of footpad swelling in the treated animals with the degree of footpad swelling (100%) in untreated, control animals that were subcutaneously injected in their footpads with an aqueous solution of SRBC in physiological saline in stead of the test compounds.

[6] = mouse, in vivo, ip

Molecule	Degree of inhibition, IC50, phospholipase D [1]	Solubility (Solubility)	Degree of inhibition, IC50, phospholipase C (phospholipase C)	Degree of inhibition, IC50, phospholipase A2 (phospholipase A2)	Suppression of uptake of [3H]-thymidine into Con A-stimulated T-lymphocytes [2]	Suppression of uptake of [3H]-thymidine into LPS-stimulated B-lymphocytes [3]	Development of blue patch +, number of animals in a group of five ([4]; Conc. 59 μM)	Development of blue patch -, number of animals in a group of five ([4]; Conc. 59 μM)	Development of blue patch ±, number of animals in a group of five ([4]; Conc. 59 μM)	Development of blue patch +, number of animals in a group of five ([4]; Conc. 590 μM)	Development of blue patch -, number of animals in a group of five ([4]; Conc. 590 μM)	Development of blue patch ±, number of animals in a group of five ([4]; Conc. 590 μM)	Thickness of footpad ([5]; dose 0.5 mg/Kg single i.p.)	Percentage with respect to the control ([5]; dose 0.5 mg/Kg single i.p.)	Thickness of footpad ([5]; dose 5 mg/Kg single i.p.)	Percentage with respect to the control ([5]; dose 5 mg/Kg single i.p.)	further results
Plipastatin A2	3.8 µg/mL	Soluble in water, methanol, ethanol, and dimethyl sulfoxide; also recorded: Insoluble in organic solvents such as acetone, ethyl acetate,	4.0 µg/mL	3.4 µg/mL	–	–	–	–	–	–	–	–	–	–	–	–	–
Plipastatin B2	3.3 µg/mL	Soluble in water, methanol, ethanol, and dimethyl sulfoxide; also recorded: Insoluble in organic solvents such as acetone, ethyl acetate,	4.5 µg/mL	3.5 µg/mL	–	–	–	–	–	–	–	–	–	–	–	–	–
Plipastatin A1	2.1 µg/mL	Soluble in water, methanol, ethanol, and dimethyl sulfoxide; also recorded: Insoluble in organic solvents such as acetone, ethyl acetate,	1.9 µg/mL	4.3 µg/mL	52%	15%	0	4	1	0	5	0	63 ± 25 × 10^-2 mm	64%	48 ± 16 × 10^-2 mm	49%	Development of blue patch +, number of animals in a group of five ([4]; Conc. 5.9 μM): 2; Development of blue patch -, number of animals in a group of five ([4]; Conc. 5.9 μM): 0; Development of blue patch ±, number of animals in a group of five ([4]; Conc. 5.9 μM): 3; Suppressive effects on PCA reactions ([4]; intradermal injections of 590 and 59 μM): comparable to those of DSCG
O=C([O-])c1cc(=O)c2c(OCC(O)COc3cccc4oc(C(=O)[O-])cc(=O)c34)cccc2o1.[Na+].[Na+] [DSCG, disodium cromoglycate, reference compound]	–	–	–	–	–	–	0	4	1	0	4	1	–	–	–	–	–
CCCCCCCCCCCCC[C@@H](O)CC(=O)N[C@@H](CCC(=O)O)C(=O)N[C@H](CCCN)C(=O)N[C@H]1Cc2ccc(cc2)OC(=O)[C@H]([C@@H](C)CC)NC(=O)[C@@H](Cc2ccc(O)cc2)NC(=O)[C@H](CCC(N)=O)NC(=O)[C@@H]2CCCN2C(=O)[C@@H](C(C)C)NC(=O)[C@H](CCC(=O)O)NC(=O)[C@@H]([C@@H](C)O)NC1=O [Plipastatin B1] ({Hexadecanoyl(3R-OH)}-E[dOrn]Y[d(aThr)]E[dV]PQ[dY]I; ester 3-C)	2.8 µg/mL	Soluble in water, methanol, ethanol, and dimethyl sulfoxide; also recorded: Insoluble in organic solvents such as acetone, ethyl acetate,	3.6 µg/mL	5.2 µg/mL	54%	20%	–	–	–	–	–	–	97 ± 44 × 10^-2 mm	99%	57 ± 31 × 10^-2 mm	58%	LD50 [6]: 250 to 500 mg/kg
